Data as given in PMC10667816, “A Cell‐Penetrant Peptide Disrupting the Transcription Factor CP2c Complexes Induces Cancer‐Specific Synthetic Lethality” (Advanced Science, 2023).
“Also recorded” adds a separate entry of the source. *1 amine or outer side, *2 acyl side, *3 side chain or, on linkers, in order; H or OH if unused. Where a SMILES comes first, the peptide text is derived from it. Side-chain parts run from the residue outwards. The star is where a group is joined. γGlu = O=C(O)[C@H](CCC(=O)[*:2])N[*:1]; Palmitoyl = CCCCCCCCCCCCCCCC(=O)*

Tests used:
[1] = system: MDA‐MB‐231 LM1 breast cancer; test: MDA‐MB‐231 LM1 CDX mouse model; assay type: in vivo
Protocol: Animal experiments were conducted in accordance with ethical guidelines, and all protocols were approved by the Institutional Animal Care and Use Committee under Hanyang University (approval numbers, 2014‐0016A, 2018‐0049A, 2018‐0207A, and 2019‐0169A), Chung‐Ang University (approval number, 2015‐00022), Chungbuk University (approval number, CBNUA‐1072‐17‐02), and Konkuk University (approval number, KU17130). To establish xenograft mice models, Hep3B, A431, U343, and PC9 cells were subcutaneously injected into the flank of Balb/c nude mice. For the MDA‐MB‐231 (LM1) cell line, it was implanted into the mammary fat pad of immunodeficient mice (NPG mice). […] Tumor volume was calculated using the formula of length × width^2)/2. […] The in vivo administration amount was determined based on the concentration of ACP52C confirmed at the cellular level, which was 2 µM. […] For ACP52C derivatives, the amount was adjusted to ensure a similar molar quantity of peptide injection, taking their molecular weights into account. For instance, in the case of ACP52CGK, ≈1.67 times the quantity was used compared to ACP52C to achieve an equivalent molar quantity. […] Hematoxylin and eosin (H&E)‐stained tissue sections were analyzed and photographed, and the representative histological images were recorded. […]

[2] = system: Hep3B; test: Hep3B CDX mouse model; assay type: in vivo
Protocol: Animal experiments were conducted in accordance with ethical guidelines, and all protocols were approved by the Institutional Animal Care and Use Committee under Hanyang University (approval numbers, 2014‐0016A, 2018‐0049A, 2018‐0207A, and 2019‐0169A), Chung‐Ang University (approval number, 2015‐00022), Chungbuk University (approval number, CBNUA‐1072‐17‐02), and Konkuk University (approval number, KU17130). To establish xenograft mice models, Hep3B, A431, U343, and PC9 cells were subcutaneously injected into the flank of Balb/c nude mice. For the MDA‐MB‐231 (LM1) cell line, it was implanted into the mammary fat pad of immunodeficient mice (NPG mice). Once tumors were successfully established, the animals were randomly divided into a control (vehicle) group and an experimental (drug) group. When the tumor volume reached 100 cubic millimeters, either saline or an appropriate concentration of drugs was administrated into mice via tail vein every 3 or 5 days for appropriate duration. Tumor volume was calculated using the formula of length × width^2)/2. To generate an orthotopic liver cancer mice model, 75 mg kg^−1 (mpk) of DEN was intraperitoneally injected weekly for 3 weeks into C57BL/6 mice, followed by 100 mpk of DEN weekly for the subsequent 3 weeks. After 37 weeks of liver cancer induction, mice received either saline or an appropriate concentration of drugs via the tail vein every 5 days for the designated duration. The in vivo administration amount was determined based on the concentration of ACP52C confirmed at the cellular level, which was 2 µM. Assuming an average mouse weight of 30 grams and considering that ≈5.8% of body weight constitutes blood volume,^[ [49] ^] it was calculated that the blood concentration of ACP52C should be ten times the GI50 concentration in cell culture conditions. […] For ACP52C derivatives, the amount was adjusted to ensure a similar molar quantity of peptide injection, taking their molecular weights into account. For instance, in the case of ACP52CGK, ≈1.67 times the quantity was used compared to ACP52C to achieve an equivalent molar quantity. At the time of sacrifice, major organs and tumors were removed and weighed, and blood was extracted. For histological analysis, major organs and tumors of mice were immediately fixed in 10% formalin neutral buffer solution, dehydrated through a graded series of ethanol treatments, treated with xylene, paraffin embedded, and cut into 4 µm sections. Hematoxylin and eosin (H&E)‐stained tissue sections were analyzed and photographed, and the representative histological images were recorded. Liver nodules in the DEN orthotopic liver cancer model were estimated by measuring the ratio of tumor areas over entire liver tissues in the tissue section using an Image J (version 1.51) software at 40× magnification. Complete blood count (CBC) analysis was conducted using a Hematology analyzer (scil Vet ABC) from the extracted blood.

[3] = Storage stability of peptide activity; assay type: physicochemical; conditions: stored in powder or solution form in a deep freezer
[4] = system: murine erythroleukemia (MEL) cells; test: Erythroid differentiation of MEL cells; assay type: cell-based; conditions: HMBA‐induced MEL cells, supplementation to the culture
Protocol: Information of the cell lines is listed in Table S1 (Supporting Information), including their origin and culture conditions. All cell lines were cultured at 37 °C, 5% CO2 incubator. MDA‐MB‐231 (LM1), HepG2, Hep3B, and HCT116 cell lines were authenticated with short tandem repeat markers based on ATCC information. All cell lines tested negative for mycoplasma contamination. Transient downregulation of the gene of interest was conducted by siRNA transfection using Lipofectamine 2000 (Thermo Fisher, 11668019) according to the manufacturer's instructions. Information about siRNAs is provided in Table S2 (Supporting Information). Stable cell lines were established by transfecting cells using Effectene reagent (Qiagen, 301425), followed by selection of cell clones in the presence of 1 µg mL^−1 puromycin (Sigma–Aldrich, P8833). The establishment of cell lines was confirmed by WB or RT‐qPCR. For doxycycline‐inducible gene expression regulation, cell lines were incubated in the presence of 1 µg mL^−1 doxycycline (Sigma–Aldrich, D9891) for 2–3 days. To promote sphere formation of the cell lines, each well of the tissue culture dish was coated with 10% poly 2‐hydroxyethyl methacrylate (polyHEMA). An appropriate number of cells per well were seeded in serum‐free DMEM/F12 (HyClone, SH30023.01) supplemented with B27, 20 ng mL^−1 bFGF, and 20 ng mL^−1 EGF. For erythroid terminal differentiation experiments, differentiation was assessed by hemoglobin staining using a 0.2% (w/v) tetramethylbenzidine solution (Sigma–Aldrich, T0440) in 0.6% hydrogen peroxide, 3% acetic acid for 10 min in dark condition. Benzidine‐positive or negative cell numbers were counted under the inverted microscope BX50 (Olympus) at 200 × magnification. […] After each synchronization, cells were fixed at 4‐h intervals for 24 h with ACP52C treatment, and the cell cycle was analyzed by Propidium Iodide (PI) staining or intracellular protein was analyzed by immunofluorescence. […] This development period was repeated four times for one round, after which GI50 concentrations were re‐assessed in each resistant cell line. […]

[5] = administered at five‐day intervals
[6] = intravenous injection at three‐day intervals, Sorafenib orally once daily as positive control

CCCCCCCCCCCCCCCC(=O)N[C@@H](CCC(=O)NCCCC[C@H](NC(=O)CNC(=O)CNC(=O)[C@@H]1CCCN1C(=O)[C@H](CCCNC(=N)N)NC(=O)[C@H](CCC(N)=O)NC(=O)[C@@H]1CCCN1C(=O)[C@H](Cc1ccc(O)cc1)NC(=O)[C@H](CC(N)=O)NC(C)=O)C(=O)NCC(=O)NCC(=O)N[C@@H](CS)C(=O)N[C@@H](CCCNC(=N)N)C(=O)NCC(=O)N[C@@H](CC(=O)O)C(=O)N[C@@H](CCCCN)C(=O)NCC(=O)N1CCC[C@H]1C(=O)N[C@@H](CC(=O)O)C(=O)N[C@@H](CS)C(N)=O)C(=O)O [ACP52CGK] (Ac-NYPQRPGGK([γGlu-Palmitoyl])GGCRGDKGPDC-NH2)
anti‐tumor efficacy ([1]; administered at five‐day intervals, NPG mice): remarkable anti‐tumor efficacy
anti‐tumor activity [2, 5]: maintained its activity; also recorded: remarkable anti‐tumor efficacy
anti‐tumor activity [2, 6]: activity similar to that of ACP52C
loss of activity on storage [3]: gradually lose their activity over one year

CC(=O)N[C@@H](CC(N)=O)C(=O)N[C@@H](Cc1ccc(O)cc1)C(=O)N1CCC[C@H]1C(=O)N[C@@H](CCC(N)=O)C(=O)N[C@@H](CCCNC(=N)N)C(=O)N1CCC[C@H]1C(=O)N[C@@H](CS)C(=O)N[C@@H](CCCNC(=N)N)C(=O)NCC(=O)N[C@@H](CC(=O)O)C(=O)N[C@@H](CCCCN)C(=O)NCC(=O)N1CCC[C@H]1C(=O)N[C@@H](CC(=O)O)C(=O)N[C@@H](CS)C(N)=O [ACP52C] (Ac-NYPQRPCRGDKGPDC-NH2)
inhibition of erythroid differentiation [4]: inhibition of erythroid differentiation
tumor weight ([1]; intravenous injection every 2 or 3 days from day 14): significantly reduced tumor weight
anti‐tumor activity [2, 5]: reduced anti‐tumor activity compared to the three‐day interval administration
anti‐tumor activity [2, 6]: superior anti‐tumor activity compared to Sorafenib
loss of activity on storage [3]: gradually lose their activity over one year

CCOc1ccccc1C1CC(=O)Nc2cc3c(cc21)OCO3 (stereo not shown) [FQI1, Factor Quinolinone Inhibitor 1, reference compound]
inhibition of erythroid differentiation [4]: limited inhibitory effects on MEL cell differentiation in vitro
